Results reported in PMC9841524, “Structure-Based Rational Design of Small α-Helical Peptides with Broad-Spectrum Activity against Multidrug-Resistant Pathogens” (Journal of Medicinal Chemistry, 2022).
Like-named read-outs stand apart in the source and are kept apart here. Where no end group is shown, it is not given here.

Tests used:
S. aureus (ATCC 29213) = assay: MIC, standard microtiter dilution (CLSI); assay type: cell-based; conditions: for MIC, S. aureus (ATCC 29213): broth microdilution (CLSI), CAMHB, 37 °C, 24 h
Description: (§1) Description of the characteristics and growth conditions of various bacterial strains used in the study are provided in the Supporting Information (Table S3). Antibacterial susceptibility testing was carried out using a standard microtiter dilution method recommended by the clinical and laboratory standard institute (CLSI) and measured as a minimum inhibitory concentration (MIC), the lowest peptide concentration that inhibited bacterial growth. Briefly, the overnight grown cultures in the recommended broth for each bacterial strain were diluted in cation-adjusted Mueller Hinton Broth (CAMHB) to give an inoculum of 10^6 colony-forming units (CFU)/mL. A 2-fold serially diluted test peptide solution (100 μL) was added to the microtiter plates. After adding bacterial suspension (100 μL), the plates were incubated at 37 °C for 24 h, and the MICs were determined. The same protocol was used to determine the MICs in the presence of salts and serum except using the media supplemented with various cationic salts (150 mM NaCl, 4.5 mM KCl, 6 mM NH4Cl, 1 mM MgCl2, and 2 mM CaCl2) or 25% FBS. The data was acquired from three independent assays performed in triplicate.
(§2) The bacterial strains employed in this study were obtained from the American Type Culture Collection (ATCC). Each strain was propagated as recommended by the ATCC, and each strain was stored as a frozen glycerol stock at -80°C. A bacterial colony was grown on the appropriate agar as indicated in Table S1 and was used to inoculate the appropriate broth. The culture was incubated at the appropriate conditions, as mentioned in Table S1. Following the incubation, the culture was diluted to an optical density 625 nm (OD625) of 0.1 in cation adjusted Mueller Hinton Broth (CAMHB), which is equivalent to 1 × 10^8 CFU/mL. The culture was further diluted to 1 × 10^6 CFU/mL, which was used to conduct the MIC determination assay. For the S. pneumoniae strains, CAMHB + 2.5% lysed horse blood was required for the assay. The strains with their […]
(§3) Table S3. Description of the characteristics and growth conditions of various bacterial strains

E. coli (ATCC 25922) = conditions: broth microdilution (CLSI), CAMHB, 37 °C, 24 h
Description: as §1, §2, §3

MRSA (ATCC BAA-1556) = conditions: broth microdilution (CLSI), CAMHB, 37 °C, 24 h
Description: as §1, §2, §3

[1] = test system: P. aeruginosa (ATCC 27883); assay: MIC, standard microtiter dilution (CLSI); assay type: cell-based, Pseudomonas aeruginosa; conditions: broth microdilution (CLSI), CAMHB, 37 °C, 24 h
Description: as §1, §2, §3

[2] = test system: K. pneumoniae (ATCCBAA-1705); assay: MIC, standard microtiter dilution (CLSI); assay type: cell-based, Klebsiella pneumoniae; conditions: broth microdilution (CLSI), CAMHB, 37 °C, 24 h
Description: as §1, §2, §3

[3] = test system: human red blood cells (hRBCs); assay: Hemolytic assay; assay type: cell-based; conditions: 2 h, 37 °C
Description: The hemolytic activity of all peptides (1a–8d) was determined using hRBC. The assay was conducted by adding 75 μL of 2-fold serially diluted peptides to 75 μL of hRBC suspension (4% in PBS). The plates were incubated for 2 h at 37 °C without agitation. In order to determine the hemolysis at each tested concentration of peptides, the plate was centrifuged, and 100 μL of the supernatant was transferred to another 96-well plate to determine hemoglobin release spectrophotometrically at 567 nm. Percent hemolysis was calculated by the following formula [drawing 1] where A represents the absorbance of the peptide sample at 567 nm and A0 and At represent zero percent and 100% hemolysis determined in phosphate buffer saline and 1% Triton X-100, respectively.

[4] = 10^6 CFU/mL, highest MIC of three independent experiments in triplicate
[5] = hRBC suspension 4% in PBS, hemoglobin release at 567 nm, 1% Triton X-100 = 100%
[6] = value in parentheses (μM), hRBC 4% in PBS, 567 nm

With RAARRWARWWR-NH2 [5a] the “MIC, S. aureus (ATCC 29213)” value (S. aureus (ATCC 29213); [4]) was 100 µg/mL, the “MIC, S. aureus (ATCC 29213)” value (S. aureus (ATCC 29213); value in parentheses (μM)) was 63.70 µM and the “MIC, E. coli (ATCC 25922)” value (E. coli (ATCC 25922); [4]) was greater than 100 µg/mL. The “MIC, E. coli (ATCC 25922)” value (E. coli (ATCC 25922); value in parentheses (μM)) was greater than 63.70 µM, the “MIC, MRSA (ATCC BAA-1556)” value (MRSA (ATCC BAA-1556); [4]) was 100 µg/mL and the “MIC, MRSA (ATCC BAA-1556)” value (MRSA (ATCC BAA-1556); value in parentheses (μM)) was 63.70 µM. For the same substance, the “MIC, P. aeruginosa (ATCC 27883)” value [1, 4] was greater than 100 µg/mL, the “MIC, P. aeruginosa (ATCC 27883)” value ([1]; value in parentheses (μM)) was greater than 63.70 µM and the “MIC, K. pneumoniae (ATCCBAA-1705)” value [2, 4] was greater than 100 µg/mL. The “MIC, K. pneumoniae (ATCCBAA-1705)” value ([2]; value in parentheses (μM)) was greater than 63.70 µM, the “HC50 (concentration at which 50% hemolysis was observed)” value [3, 5] was greater than 500 µg/mL and the “HC50 (concentration at which 50% hemolysis was observed)” value [3, 6] was greater than 318.50 µM.

With RAWRRWWRAA-NH2 [4b] the “MIC, S. aureus (ATCC 29213)” value (S. aureus (ATCC 29213); [4]) was greater than 100 µg/mL, the “MIC, S. aureus (ATCC 29213)” value (S. aureus (ATCC 29213); value in parentheses (μM)) was greater than 70.74 µM and the “MIC, E. coli (ATCC 25922)” value (E. coli (ATCC 25922); [4]) was greater than 100 µg/mL. The “MIC, E. coli (ATCC 25922)” value (E. coli (ATCC 25922); value in parentheses (μM)) was greater than 70.74 µM, the “MIC, MRSA (ATCC BAA-1556)” value (MRSA (ATCC BAA-1556); [4]) was greater than 100 µg/mL and the “MIC, MRSA (ATCC BAA-1556)” value (MRSA (ATCC BAA-1556); value in parentheses (μM)) was greater than 70.74 µM. The “MIC, P. aeruginosa (ATCC 27883)” value [1, 4] was greater than 100 µg/mL, the “MIC, P. aeruginosa (ATCC 27883)” value ([1]; value in parentheses (μM)) was greater than 70.74 µM and the “MIC, K. pneumoniae (ATCCBAA-1705)” value [2, 4] was greater than 100 µg/mL. For the same substance, the “MIC, K. pneumoniae (ATCCBAA-1705)” value ([2]; value in parentheses (μM)) was greater than 70.74 µM, the “HC50 (concentration at which 50% hemolysis was observed)” value [3, 5] was greater than 500 µg/mL and the “HC50 (concentration at which 50% hemolysis was observed)” value [3, 6] was greater than 353.69 µM.

RRWRRWW-NH2 [1d] was tested, and the “MIC, S. aureus (ATCC 29213)” value (S. aureus (ATCC 29213); [4]) was 100 µg/mL, the “MIC, S. aureus (ATCC 29213)” value (S. aureus (ATCC 29213); value in parentheses (μM)) was 83.30 µM and the “MIC, E. coli (ATCC 25922)” value (E. coli (ATCC 25922); [4]) was greater than 100 µg/mL. For the same substance, the “MIC, E. coli (ATCC 25922)” value (E. coli (ATCC 25922); value in parentheses (μM)) was greater than 83.30 µM, the “MIC, MRSA (ATCC BAA-1556)” value (MRSA (ATCC BAA-1556); [4]) was 100 µg/mL and the “MIC, MRSA (ATCC BAA-1556)” value (MRSA (ATCC BAA-1556); value in parentheses (μM)) was 83.30 µM. For the same substance, the “MIC, P. aeruginosa (ATCC 27883)” value [1, 4] was greater than 100 µg/mL, the “MIC, P. aeruginosa (ATCC 27883)” value ([1]; value in parentheses (μM)) was greater than 83.30 µM and the “MIC, K. pneumoniae (ATCCBAA-1705)” value [2, 4] was greater than 100 µg/mL. The “MIC, K. pneumoniae (ATCCBAA-1705)” value ([2]; value in parentheses (μM)) was greater than 83.30 µM, the “HC50 (concentration at which 50% hemolysis was observed)” value [3, 5] was greater than 500 µg/mL and the “HC50 (concentration at which 50% hemolysis was observed)” value [3, 6] was greater than 416.52 µM.

With RWRRWWR-NH2 [1a] the “MIC, S. aureus (ATCC 29213)” value (S. aureus (ATCC 29213); [4]) was 100 µg/mL, the “MIC, S. aureus (ATCC 29213)” value (S. aureus (ATCC 29213); value in parentheses (μM)) was 83.30 µM and the “MIC, E. coli (ATCC 25922)” value (E. coli (ATCC 25922); [4]) was greater than 100 µg/mL. The “MIC, E. coli (ATCC 25922)” value (E. coli (ATCC 25922); value in parentheses (μM)) was greater than 83.30 µM, the “MIC, MRSA (ATCC BAA-1556)” value (MRSA (ATCC BAA-1556); [4]) was 100 µg/mL and the “MIC, MRSA (ATCC BAA-1556)” value (MRSA (ATCC BAA-1556); value in parentheses (μM)) was 83.30 µM. For the same substance, the “MIC, P. aeruginosa (ATCC 27883)” value [1, 4] was greater than 100 µg/mL, the “MIC, P. aeruginosa (ATCC 27883)” value ([1]; value in parentheses (μM)) was greater than 83.30 µM and the “MIC, K. pneumoniae (ATCCBAA-1705)” value [2, 4] was greater than 100 µg/mL. The “MIC, K. pneumoniae (ATCCBAA-1705)” value ([2]; value in parentheses (μM)) was greater than 83.30 µM, the “HC50 (concentration at which 50% hemolysis was observed)” value [3, 5] was greater than 500 µg/mL and the “HC50 (concentration at which 50% hemolysis was observed)” value [3, 6] was greater than 416.52 µM.

For RWARRWARWWR-NH2 [5b], the “MIC against S. aureus” value (S. aureus (ATCC 29213)) was 50 µg/mL, the “MIC, S. aureus (ATCC 29213)” value (S. aureus (ATCC 29213); [4]) was 50 µg/mL and the “MIC, S. aureus (ATCC 29213)” value (S. aureus (ATCC 29213); value in parentheses (μM)) was 29.67 µM. The “MIC, E. coli (ATCC 25922)” value (E. coli (ATCC 25922); [4]) was 100 µg/mL, the “MIC, E. coli (ATCC 25922)” value (E. coli (ATCC 25922); value in parentheses (μM)) was 59.35 µM and the “MIC, MRSA (ATCC BAA-1556)” value (MRSA (ATCC BAA-1556); [4]) was 100 µg/mL. The “MIC, MRSA (ATCC BAA-1556)” value (MRSA (ATCC BAA-1556); value in parentheses (μM)) was 59.35 µM, the “MIC, P. aeruginosa (ATCC 27883)” value [1, 4] was 100 µg/mL and the “MIC, P. aeruginosa (ATCC 27883)” value ([1]; value in parentheses (μM)) was 59.35 µM. The “MIC, K. pneumoniae (ATCCBAA-1705)” value [2, 4] was greater than 100 µg/mL, the “MIC, K. pneumoniae (ATCCBAA-1705)” value ([2]; value in parentheses (μM)) was greater than 59.35 µM and the “HC50 (concentration at which 50% hemolysis was observed)” value [3, 5] was greater than 500 µg/mL. For the same substance, the “HC50 (concentration at which 50% hemolysis was observed)” value [3, 6] was greater than 296.74 µM.
